Drawing on a melting point compilation (Tetko et al.; mined from patent text by program, amines drawn as free bases though some values may be those of a salt), this text covers melting point for 88 molecules.

As usually defined, the melting point is the temperature of the solid-liquid transition.

In turn, `O=C(Nc1cccnn1)N1CCN(c2nccc(-c3cc(F)cc(F)c3)n2)CC1` came in with a melting point of 270 to 271 °C.

Regarding `COC(=O)C1CCCCCCCSC[C@@H](C(=O)OC)NC1=O` (stereo partly drawn), the melting point lay in the range of 156 to 164 °C.

`Nc1nc(NCCC2CCCCC2)nc2c1ncn2C1OC(CO)C(O)C1O` (stereo not drawn): the melting point lay in the range of 142 to 145 °C.

In turn, `O=C(CCc1ccccc1)Nc1ccc(Br)cc1` displayed a melting point of 149 to 151 °C.

`c1cc(C2CCOCC2)ccn1` returned a melting point of 60 to 62 °C.

`O=C(O)/C=C/C=C/C=C/C1=Cc2cc(C(F)(F)F)ccc2OC1` displayed a melting point of 208 to 210 °C.

As to `O=C1C2CCCC2=Nc2ccccc2N1Cc1ccc2ccccc2c1` (stereo not drawn), the melting point lay in the range of 164 to 167 °C.

`CNC(=O)c1cc(C#N)cc(C)c1NC(=O)c1cc(Br)nn1-c1ccccc1Cl` returned a melting point of 242 to 243 °C.

`CCOC(=O)CCCOc1ccc(C(C)=O)cc1` returned a melting point of 59 to 61 °C.

On to `O=C1Cc2ccccc2C(c2cccc(Cl)c2)N1` (stereo not drawn), for which the melting point fell in the range of 133 to 134 °C.

Molecule `CN1Cc2c(-c3noc(CCl)n3)ncn2-c2ccsc2C1=O` registered a melting point of 221 to 223 °C.

In turn, `Cc1c(N2CC(O)C2)c(F)cc2c(=O)c(C(=O)O)cn(-c3nc(N)c(F)cc3F)c12` showed a melting point of 245 to 247 °C.

As for `Cc1cc(N=CN(C)C)c(C)cc1Cc1cccc(C(F)(F)F)c1`, the melting point fell in the range of 75 to 77 °C.

In turn, `NN1CCN(CC(O)c2c[nH]c3ccccc23)CC1` (stereo not drawn) showed a melting point of 174 to 177 °C.

In the case of `CC(=O)NC[C@H]1CN(c2ccc(N3CCC4(CC3)COCO4)c(F)c2)C(=O)O1`, the melting point fell in the range of 142 to 144 °C.

For the molecule `NCC(c1ccc(OCc2ccccc2)cc1)C1CCCCC1O` (mixture of isomers), the melting point was in the range of 160 to 161 °C.

`CCOc1c(SC(F)(F)F)c(C#N)nn1-c1c(Cl)cc(C(F)(F)F)cc1Cl` gave a melting point of 106 °C.

For `OCCCOc1cccc2sccc12`, the melting point stood at 82 °C.

Consider `CN1c2ccccc2C(c2ccccc2Cl)=Nc2cccnc21`, for which the melting point lay within 132 to 133 °C.

Molecule `O=C(NCCCl)Nc1ccc(CCCc2ccccc2OCc2ccccc2)cc1` yielded a melting point of 120 to 121 °C.

With `COC1CCCCC1n1nnc2c([N+](=O)[O-])cccc21` (stereo not drawn), the melting point lay in the range of 134 to 136 °C.

On to `COc1cc2cc3ncc(C#N)c(Nc4ccc(Oc5ccccc5)cc4)c3cc2cc1OC`, for which the melting point is over 265 °C.

`S=C(NCCCCN(Cc1ccc(Cl)c(Cl)c1)c1ccc(Br)cn1)NCCCc1c[nH]cn1` registered a melting point of 63 to 67 °C.

`O=C(Nc1cccc(O)c1)C(=O)N1CCC(Cc2ccccc2)CC1` registered a melting point of 158 to 160 °C.

Molecule `O=C1c2cccc([N+](=O)[O-])c2C(=O)N1CCO` displayed a melting point of 93 °C.

`COc1ccc(C2C[N+]([O-])=C3CCCCC32)cc1OC` (stereo not drawn) returned a melting point of 135 to 141 °C.

`CCOC(=O)c1ncn(-c2nncs2)c1N` registered a melting point of 181 to 183 °C.

For the molecule `Cn1nc(-c2c(Cl)cccc2Cl)nc1-c1sc(Cl)c(Cl)c1Cl`, the melting point was 146 to 147 °C.

As to `CCc1ccc2c(c1)C=Cc1cc(C)ccc1C2c1cn(-c2ccnc(N3CC(C(=O)O)C3)n2)c(=O)[nH]c1=O` (stereo not drawn), the melting point was 244 °C.

The molecule `COc1cc(C=O)c(CCC(=O)O)c(C=O)c1O` registered a melting point of 164 to 166 °C.

For the molecule `COCc1c(C=NO)ncc2[nH]c3cccc(Cc4ccc(Cl)cc4)c3c12`, the melting point lay within 224 to 228 °C.

Take `COc1ccc([C@@H]2CCCC[C@@H]2[N+](=O)[O-])cc1OC` (racemic): the melting point was in the range of 84 to 86.5 °C.

The molecule `CCc1cn2ccccc2c1S(=O)(=O)c1ccc(OS(=O)(=O)c2ccc(C)cc2)cc1` yielded a melting point of 190 °C.

Consider `CCN1C(=O)C(C)(C)C(=O)N(C)c2cc(CN(CCn3ccc4oc(C)cc4c3=O)C(C)c3cccnc3)ccc21` (stereo not drawn), for which the melting point fell in the range of 128 to 132 °C.

As to `Cn1ccnc1CC1COc2ccccc2O1` (stereo not drawn), the melting point fell in the range of 158 to 160 °C.

In the case of `N#Cc1c(C(F)(F)C(F)(F)F)nn(-c2c(Cl)cc(C(F)(F)F)cc2Cl)c1N`, the melting point was in the range of 160 to 162 °C.

As to `OC12CC3CC(C1)CC(NC(c1ccccc1)(c1ccccc1)c1ccccc1)(C3)C2`, the melting point fell in the range of 184 to 186 °C.

For `Cc1nn(C)c(Cl)c1S(=O)(=O)Nc1ccc(Cl)cc1C(=O)Nc1ccc(S(=O)(=O)N2CCSCC2)cc1`, the melting point lay in the range of 215 to 216 °C.

For the molecule `COc1cccc(N2CC(=O)N(C)C(=O)N2)c1`, the melting point fell in the range of 120 to 122 °C.

The molecule `C[C@@H](NC(=O)c1nc(-c2ccc(Cl)cc2)ns1)[C@](O)(Cn1cncn1)c1ccc(F)cc1F` returned a melting point of 215 to 220 °C.

Consider `CCOC(=O)C(=Cc1ccccc1)c1csc(N)n1`, for which the melting point stood at 162 °C.

In turn, `CC1SC(=O)NN=C1c1ccc2c(c1)C1(CCCS1)C(=O)N2` (stereo not drawn) yielded a melting point of 205 °C.

For the molecule `CCC(=O)N1c2ccccc2CC1C(=O)O` (stereo not drawn), the melting point lay within 173 to 175 °C.

With `CCOC(=O)COc1ccc(CC2SC(=O)NC2=O)cc1` (stereo not drawn), the melting point was in the range of 105 to 106 °C.

As to `CC(=O)Nc1ccc(/C=C/C(=O)N2CC(CCl)c3c2cc(N)c2ccccc32)cc1` (stereo not drawn), the melting point was over 250 °C.

In turn, `COc1ccc(-c2nc3cccc(OC)c3c(=O)[nH]2)nc1-c1ccc(S(C)=O)cc1` (stereo not drawn) came in with a melting point of 308 to 310 °C.

Molecule `CCOC(=O)C1CN(S(C)(=O)=O)CCN1CC=CC(=O)Nc1cc2c(Nc3ccc(F)c(Cl)c3)ncnc2cc1OCC1CC1` (stereo not drawn) displayed a melting point of 170 to 173 °C.

On to `O=C1C(CCO)Oc2ccc(-c3ccccc3)cc2N1Cc1cccc(Cl)c1` (stereo not drawn), for which the melting point lay in the range of 119 to 121 °C.

In turn, `O=c1cc(-c2ccncc2)nc(-c2cccnc2)[nH]1` showed a melting point of over 300 °C.

Take `Clc1ncnc(Cl)c1C1OCCO1`: the melting point was in the range of 108 to 110 °C.

Regarding `CSc1ccc([C@@H](CC2CCCC2)C(=O)O)cc1Cl`, the melting point lay within 117 to 119 °C.

The molecule `O=C(Nc1cccc(Br)n1)Nc1cccc2c1C1CCCCN1C2=O` (stereo not drawn) registered a melting point of 218 to 220 °C.

The molecule `C[C@H](NC(=O)Cc1cc(F)cc(F)c1)C(=O)N[C@@H]1C(=O)Nc2ccccc2S[C@@H]1c1ccc(Br)s1` registered a melting point of 139 to 140 °C.

Turning to `Cc1ccc(S)c(C=O)c1`, the melting point was 181 to 184 °C.

The molecule `Cn1ccc2cc(NC(=O)CC34CC5CC(CC(C5)C3)C4)ccc21` gave a melting point of 183 to 184 °C.

In turn, `CCOC(=O)Cc1nn(Cc2ccc(Cl)c(Cl)c2)c(=O)c2c(C)cccc12` came in with a melting point of 134 to 137 °C.

Molecule `CN(C)C(=O)c1cc(C(C)(C)C)c(O)c(C(C)(C)C)c1` yielded a melting point of 173 to 174 °C.

For `Cc1noc(NS(=O)(=O)c2ccsc2C(=O)Nc2cccc(C(=O)O)c2)c1Br`, the melting point lay in the range of 183 to 185 °C.

Consider `NC(=O)N[C@@H]1CN2C(=O)N(c3cc(Cl)nc(Cl)c3)C(=O)[C@@]2(Cc2ccc(OC(F)(F)F)cc2)C1`, for which the melting point is 142 °C.

In turn, `CCOC(=O)c1cc(O)cc(C(=O)OCC)c1` showed a melting point of 106 °C.

As to `CCOC(=O)c1cc(Oc2ccc3c(C(=O)Nc4cccc(C(F)(F)F)c4)cccc3c2)ncn1`, the melting point is 194 °C.

`CCCCCCCCCCOc1cnc(-c2ccc(CCCCCC(C)OC(C)=O)cc2)nc1` (stereo not drawn) had a melting point of 72 to 73 °C.

Molecule `Nn1c(C2CC2)n[nH]c1=O` yielded a melting point of 183 °C.

`CC(C)(C)c1nc2cc(CC#N)ccc2s1`: the melting point fell in the range of 50 to 52 °C.

In turn, `O=C(O)CCCCCCC1=CC(O)CC1=O` (stereo not drawn) had a melting point of 47 to 48.5 °C.

For `COc1cc(NC(=O)N(c2ccc(N(C)C)cc2)C2CCCCCC2)c(OC(=O)[C@H](C)NC(=O)OCc2ccccc2)c(C(C)(C)C)c1`, the melting point was found to be 126 °C.

`CCCc1cc(C(=O)NCc2ccccn2)ccc1OC(C(=O)NS(=O)(=O)c1ccc(C(C)C)cc1)c1ccc2c(c1)OCO2` (stereo not drawn): the melting point lay in the range of 168 to 170 °C.

With `Clc1nc(-n2cccn2)ncc1Cc1ccccc1`, the melting point fell in the range of 149 to 151 °C.

Take `O=C1CCCN1c1ccc(N2C[C@H](CO)OC2=O)cc1`: the melting point turned out to be 148 °C.

`O=C1c2cc(OCc3ccc4ccccc4n3)ccc2OCC1OCc1ccccc1` (stereo not drawn): the melting point fell in the range of 113 to 115 °C.

Turning to `Cc1ccc2c(c1)C(O)(c1ccccc1Cl)C(=O)N2` (stereo not drawn), the melting point fell in the range of 295 to 300 °C.

`CNC(=S)C1(c2cc(C)ccn2)CCCS1` (stereo not drawn) showed a melting point of 181 °C.

Molecule `COC(=O)CCc1ncc2oc(C(=O)OC)c(O)c2c1C(=O)OC` came in with a melting point of 117 to 118 °C.

For `Cc1cccc(N2CCN(c3ccc(Oc4ccccc4)nn3)CC2)c1`, the melting point is 123 °C.

The molecule `CCOC(=O)c1cn(-c2ccc(F)cc2F)c2nc(OS(=O)(=O)c3ccccc3[N+](=O)[O-])c(F)cc2c1=O` displayed a melting point of 157 to 160 °C.

`Nc1ccc(Cl)cc1S`: the melting point was in the range of 70 to 72 °C.

In turn, `CC(C)n1cc(C(=O)NCc2ccc(Cl)cc2)c(=O)c2cc(CCCO)sc21` had a melting point of 84 to 92 °C.

Take `COc1cc2c(cc1OC)-c1c(-c3ccccc3)c(-c3cc(C)c(O)c(C)c3)c(C)n1CC2`: the melting point is 210 to 214 °C.

`CN(C)CCCn1c(-c2ccc(Br)cc2)csc1=Nc1ccccc1` showed a melting point of 110 to 111 °C.

For `COC(=O)c1sc(C)cc1N1N=C2c3cc(C)sc3SCC2CC1=O` (stereo not drawn), the melting point is 164 to 166 °C.

Regarding `CS(=O)(=O)c1ccc(-c2oc3ccccc3c(=O)c2-c2ccc(Cl)cc2)cc1`, the melting point lay in the range of 145 to 147 °C.

In turn, `CON=C(C(=O)O)c1cccc(OC)c1` registered a melting point of 97 to 98 °C.

In the case of `CCCCc1nn(Cc2ccccc2C(=O)O)c(=O)n1Cc1ccc(-c2ccccc2-c2nnn[nH]2)cc1`, the melting point is over 106 °C.

`CC(C)(C)OC(=O)NC(Cc1ccccc1)C(O)CNCC(O)C(Cc1ccccc1)NC(=O)SC(C)(C)C` (stereo not drawn) had a melting point of 140 to 141 °C.

In turn, `CC(=O)OC1CCC2(C)C(CCC3=C4C(=O)CC(C(C)CCC=O)C4(C)CCC32)C1` (stereo not drawn) gave a melting point of 162 to 164 °C.

`COC(=O)COc1cc(C(C)C)c(SC#N)cc1C` came in with a melting point of 67 to 69 °C.

Consider `CCC1(O)CCC2C3CCC4=C(CC=C(OC)C4)C3CCC21C` (stereo not drawn), for which the melting point fell in the range of 131 to 134 °C.

`CCOC(=O)C1(NC(=O)Nc2cccc(C)c2)N=C(c2ccc(Cl)cc2)c2ccccc2-n2c(C)nnc21` (stereo not drawn): the melting point was 168 to 172 °C.
